Experimental findings from patent publication US7045316B2, “Transporter genes OATP-B,C,D, and E” (Chugai Seiyaku Kabushiki Kaisha, priority 1999, dated 2006) are described below.

The structures appear in SMILES notation. Where two headings read alike, the source gives them in different places.

This data set concerns the target T1, OATP-C protein (Homo sapiens, UniProt Q9Y6L6).
T1 sequence (Q9Y6L6 1-691): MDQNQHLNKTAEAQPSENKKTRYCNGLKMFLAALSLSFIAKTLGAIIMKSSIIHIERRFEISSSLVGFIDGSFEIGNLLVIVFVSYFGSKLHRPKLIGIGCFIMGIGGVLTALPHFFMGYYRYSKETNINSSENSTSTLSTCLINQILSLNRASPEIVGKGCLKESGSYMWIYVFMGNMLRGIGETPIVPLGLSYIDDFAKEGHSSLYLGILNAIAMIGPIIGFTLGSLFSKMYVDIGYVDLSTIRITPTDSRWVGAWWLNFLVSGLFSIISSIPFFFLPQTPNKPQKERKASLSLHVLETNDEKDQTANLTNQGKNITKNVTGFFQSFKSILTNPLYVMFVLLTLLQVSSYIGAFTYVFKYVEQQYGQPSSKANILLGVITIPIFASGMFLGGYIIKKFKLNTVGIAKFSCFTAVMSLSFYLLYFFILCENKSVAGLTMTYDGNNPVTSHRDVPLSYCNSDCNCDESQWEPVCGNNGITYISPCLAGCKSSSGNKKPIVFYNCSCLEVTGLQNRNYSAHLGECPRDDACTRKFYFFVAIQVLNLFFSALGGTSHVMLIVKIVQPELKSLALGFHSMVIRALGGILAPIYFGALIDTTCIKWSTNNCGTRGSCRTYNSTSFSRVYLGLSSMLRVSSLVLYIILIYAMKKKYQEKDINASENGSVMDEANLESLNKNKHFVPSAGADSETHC
Description: Transport experiment: uptake of labeled substrates into HEK293 cells transfected with OATP-C. As for the experimental part:
The human fetal kidney-derived cell strain, HEK 293 cells, were transfected with the plasmid pcDNA3/OATP-C or the pcDNA3 vector containing no insert as a control (mock) by the calcium phosphate method. Specifically, the plasmid DNA (10 μg), a Hepes buffer solution (137 mM NaCl 5 mM KCl, 0.7 mM Na2HPO4, 6 mM dextrose, and 21 mM Hepes pH 7.1) (1 ml), and 2 M CaCl2 (62.5 μl) were mixed and the resultant mixture was allowed to stand at room temperature for 30 min or more to form calcium phosphate coprecipitates. After the cells were plated on 10-cm diameter plates at a concentration of 1.5×10^6 cells per plate, and the cells were cultured for 24 h. The above-described calcium phosphate coprecipitates were added thereto, and the cells were further cultured for 24 h. Then, plates were washed with phosphate buffered saline (PBS), and after the addition of fresh culture medium, the cells were further cultured for 24 h.
Transport experiment was performed using the cells transfected with the plasmid DNA according to the following procedures. The cells were detached from the plates using a rubber policeman, suspended in a transport buffer (containing 125 mM NaCl, 4.8 mM KCl, 5.6 mM (+)-glucose, 1.2 mM CaCl2, 1.2 mM KH2PO4, 1.2 mM MgSO4, and 25 mM Hepes pH 7.4), and pre-incubated for 20 min. […] Incubated cells were overlaid on a silicon layer formed by laying a mixture of silicon oil and liquid paraffin (specific gravity=1.022) on a 3 M KCl layer, and separated by centrifugation. Radioactivity of cells was measured to determine the into-the-cell transport activity. In this case, 1×10^6 cells were used as one point of cells.
Herein, the culture of HEK 293 cells was performed using Dulbecco's MEM containing 10% FCS (fetal calf serum) as the culture medium in an atmosphere of 5% carbon dioxide at 37° C.

Where [1] appears, read: HEK293 cells expressing OATP-C vs mock, labeled substrate, 37° C. (FIG. 3).

On to `C[C@]12CC[C@@H]3c4ccc(O)cc4CC[C@H]3[C@@H]1CC[C@@H]2O[C@@H]1O[C@H](C(=O)O)[C@@H](O)[C@H](O)[C@H]1O` [estradiol-17β-glucuronide], for which the into-the-cell transport activity entry under setting [1] is on record as “transport was obviously observed”. Also, the “alteration of transport mediated by OATP-C protein” value (chloride ion substituted with gluconate (FIG. 6)) is on record as “No alteration” and the “alteration of transport mediated by OATP-C protein” value (sodium ion replaced with N-methylglucamine (FIG. 6)) is recorded as “No alteration”.

As to `C[C@]12CC[C@@H]3c4ccc(OS(=O)(=O)O)cc4CC[C@H]3[C@@H]1CCC2=O` [estron-3-sulfate], under setting [1], the into-the-cell transport activity entry is given as “transport was obviously observed”.

Consider `CN(Cc1cnc2nc(N)nc(N)c2n1)c1ccc(C(=O)N[C@@H](CCC(=O)O)C(=O)O)cc1` [methotrexate], for which the into-the-cell transport activity entry is recorded as “weak transport activity”.

Regarding `C[C@@H]1O[C@@H](O[C@H]2C[C@@H](O)[C@]3(CO)[C@H]4[C@H](O)C[C@]5(C)[C@@H](C6=CC(=O)OC6)CC[C@]5(O)[C@@H]4CC[C@]3(O)C2)[C@H](O)[C@H](O)[C@H]1O` [ouabain], the into-the-cell transport activity entry under setting [1] was “weak transport activity”.

With `CCCCC[C@H](O)/C=C/[C@H]1[C@H](O)CC(=O)[C@@H]1C/C=C\CCCC(=O)O` [prostaglandin E2], the into-the-cell transport activity result under setting [1] is on record as “weak transport activity”.
